For ten molecules, IC50 results are on record in BindingDB's records for patent US20240124439 (Pfizer, 2024).

The experiment concerns the target T1, Tyrosine-protein kinase ITK/TSK (Homo sapiens, UniProt Q08881).
T1 sequence (Q08881 whole entry): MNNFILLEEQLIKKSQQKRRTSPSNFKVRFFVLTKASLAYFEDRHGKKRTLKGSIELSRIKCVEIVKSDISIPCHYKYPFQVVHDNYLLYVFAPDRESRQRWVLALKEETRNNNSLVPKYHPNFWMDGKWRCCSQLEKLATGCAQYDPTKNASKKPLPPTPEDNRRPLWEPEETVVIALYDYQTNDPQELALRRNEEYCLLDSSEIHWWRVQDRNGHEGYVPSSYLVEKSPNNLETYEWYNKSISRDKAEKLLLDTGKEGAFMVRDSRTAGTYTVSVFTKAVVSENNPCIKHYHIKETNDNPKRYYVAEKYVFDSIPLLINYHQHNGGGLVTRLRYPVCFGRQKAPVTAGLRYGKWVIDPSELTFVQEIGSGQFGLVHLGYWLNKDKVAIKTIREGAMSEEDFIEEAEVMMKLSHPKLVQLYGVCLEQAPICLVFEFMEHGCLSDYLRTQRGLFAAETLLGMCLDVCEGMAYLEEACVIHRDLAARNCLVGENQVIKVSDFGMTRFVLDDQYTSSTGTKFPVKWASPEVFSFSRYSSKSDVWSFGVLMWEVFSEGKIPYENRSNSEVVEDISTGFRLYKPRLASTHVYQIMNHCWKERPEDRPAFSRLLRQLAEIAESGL
Put plainly: ITK Enzyme Assay. Here is the method: 1.0 M HEPES Buffer pH 7.5 solution was prepared as follows: 238.3 g HEPES free acid (Sigma) and 800 mL of water were combined, and the mixture was stirred until complete dissolution. The pH was adjusted to 7.5 via titration with 5N NaOH and the volume adjusted to 1000 mL. The solution was filtered and sterilized.ITK assay buffer was prepared as follows: 50 mL of HPLC-grade water was treated with 2 mL of 1.0 M HEPES Buffer, 500 μL of 2% Gelatin (Sigma), 1.0 mL of aqueous MgCl2 solution (1.0 M), and 1.0 mL of aqueous glutathione solution (0.5 M), and the solution was mixed. The solution was brought to 99 mL in a graduated cylinder by addition of water and sterilized through a 0.2 μm filter. 0.1 mL of Brij-35 Surfact-Amps Detergent Solution (10% w/v aqueous solution, ThermoFisher) and 1.0 mL of ATP (Teknova,100 mM) were added and the solution was mixed.Preparation of 1.33 ITK enzyme solution was as follows: 49.99 mL of ITK assay buffer was treated with 4.1 μL of ITK enzyme (ITK FL (N-Flag and C-His tagged, […]) Lake Pharma, 0.25 mg/ml in a buffer containing 25 mM Tris pH 7.8, 150 mM NaCl, 10% glycerol and 2 mM TCEP) and the mixture was gently agitated. The resulting solution was stored on ice. 30 Minutes prior to use, the enzyme solution was removed from ice and equilibrated to RT by incubation in a RT water bath.

pIC50: −log10 of the molar value.

Molecule `CCc1nc2[nH]c(-c3n[nH]c4c3C[C@@H]3C[C@]3(C)C4)nc2cc1N(C)C(=O)CN1CCOCC1` [US20240124439, Example 37] showed a negative-log IC50 (pIC50) of 6.83. The result for `C[C@@H](C(=O)N(C)c1cnc2[nH]c(-c3n[nH]c4c3CCC(C)(C)C4)nc2c1)N1CCOCC1` [US20240124439, Example 14] reads 6.83; that for `CN(C(=O)CC1CC(F)(F)C1)c1cnc2nc(-c3n[nH]c4c3C[C@@H]3C[C@]3(C)C4)[nH]c2c1` [US20240124439, Example 48], 7.18. For `C[C@@H](C(=O)Nc1ccc2[nH]c(-c3n[nH]c4c3CCC(C)(C)C4)nc2c1)N1CCOCC1` [US20240124439, Example 33] the value was 5.70; for `C[C@H](C(=O)N(C)c1cnc2[nH]c(-c3n[nH]c4c3C[C@@H]3C[C@]3(C)C4)nc2c1)N1CCOCC1` [US20240124439, Example 26], 6.87; for `CC(C)(C(=O)Nc1cnc2[nH]c(-c3n[nH]c4c3C[C@@H]3C[C@]3(C)C4)nc2c1)N1CCOCC1` [US20240124439, Example 16], 6.13. The result for `CN(C(=O)CC1CC2(C1)CC2(F)F)c1cnc2nc(-c3n[nH]c4c3C[C@@H]3C[C@]3(C)C4)[nH]c2c1` (stereo not given in full) [US20240124439, Example 50] reads 7.48; that for `CN(C(=O)CC1CC2(CCC2)C1)c1cnc2nc(-c3n[nH]c4c3C[C@@H]3C[C@]3(C)C4)[nH]c2c1` [US20240124439, Example 49], 7.60.

In turn, `CCN(C(=O)[C@H](C)C1CCOCC1)c1cnc2[nH]c(-c3n[nH]c4c3CCC(C)(C)C4)nc2c1` [US20240124439, Example 18] showed a negative logarithm of the IC50 (pIC50) of 7.55. For `CN(C(=O)CC1CC2(C1)CC(F)(F)C2)c1cnc2nc(-c3n[nH]c4c3C[C@@H]3C[C@]3(C)C4)[nH]c2c1` [US20240124439, Example 54] the value was 7.21.
